Our source for the Ki and EC50 values is patent US20240043404A1 (AbbVie Inc., priority 2009, published 2024).

As usually defined, the Ki is the dissociation constant of the complex between target and ligand, obtained from inhibition or displacement.

Read-outs that look alike come from different tables or passages of the source.

In experiment [1] the target is Bcl-2 (Homo sapiens (Human), UniProt P10415). Briefly: Time Resolved-Fluorescence Resonance Energy Transfer (TR-FRET) Bcl-2 binding assay. For orientation: TR-FRET usually uses a lanthanide donor and a delayed reading to cut background.
Protocol: The samples are then mixed on a shaker for 1 minute and incubated for an additional 3 hours at room temperature. For each assay, the probe/antibody and protein/probe/antibody were included on each assay plate as negative and positive controls, respectively.
The samples were then mixed on a shaker for 1 minute and incubated for an additional 3 hours at room temperature. For each assay, the probe/antibody and protein/probe/antibody were included on each assay plate as negative and positive controls, respectively.
In experiment [2] the test system is RS4;11 cells. The experiment is described as follows: RS4;11 cell viability assay (CellTiter Glo).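 Also: acute lymphoblastic leukemia line RS4,11, EC50 derived from percentage of viable cells after treatment relative to untreated controls, cell killing taken as a measure of Bcl-2 inhibition.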 The settings on record: read-out: RS4. The class given is cell-based, human.
Protocol: The acute lymphoblastic leukemia (ALL) cell line RS4;11 was used as the primary human cell line to assess the cellular activity of Bcl-2 selective agents in vitro and their efficacy in vivo.
Cell cytotoxicity EC50 values were assessed using CellTiter Glo (Promega) according to the manufacturer's recommendations. The EC50 values were determined as a percentage of viable cells following treatment compared to the untreated control cells.
Setting [3] is: Homo sapiens, RS4-11, 48 h, 50,000 cells per well, 10% human serum, 48 hours, 11 EC50 Values.
Setting [4] is: Table 5, direct comparison Z=N with corresponding analogs Z=C, read-out: Bcl-2 FRET ki.
The mark [5] stands for this setting: Homo sapiens, RS4-11, Table 5, direct comparison Z=N with corresponding analogs Z=C, 11 EC50.

Chain of Bcl-2 (P10415 whole entry): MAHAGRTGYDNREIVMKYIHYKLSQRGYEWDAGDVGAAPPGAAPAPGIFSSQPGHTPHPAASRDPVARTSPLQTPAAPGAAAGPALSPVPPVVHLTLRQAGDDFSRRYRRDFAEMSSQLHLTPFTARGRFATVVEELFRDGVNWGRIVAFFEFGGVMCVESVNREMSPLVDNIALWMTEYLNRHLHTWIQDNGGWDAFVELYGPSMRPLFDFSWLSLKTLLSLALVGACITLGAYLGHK

With `CC1(C)CCC(CN2CCN(c3ccc(C(=O)NS(=O)(=O)c4ccc(OC[C@H]5CC[C@@H](N6CCOCC6)C5)c([N+](=O)[O-])c4)c(Oc4cnc5[nH]ccc5c4)c3)CC2)=C(c2ccc(Cl)cc2)C1` (relative stereo) [Example 188], in experiment [1], the Ki was below 0.01 nM. For the same molecule, the EC50 in experiment [2] (setting [3]) stood at 16.4 nM.

On to `CN1CCC(Nc2ccc(S(=O)(=O)NC(=O)c3ccc(N4CCN(CC5=C(c6ccc(Cl)cc6)CC(C)(C)CC5)CC4)cc3Oc3cnc4[nH]ccc4c3)cc2[N+](=O)[O-])CC1` [Example 4, 4-(4-{[2-(4-chlorophenyl)-4,4-dimethylcyclohex-1-en-1-yl]methyl}piperazin-1-yl)-N-({4-[(1-methylpiperidin-4-yl)amino]-3-nitrophenyl}sulfonyl)-2-(1H-pyrrolo[2,3-b]pyridin-5-yloxy)benzamide], for which the inhibition constant (Ki) in experiment [1] (setting [4]) is below 0.01 nM. For the same molecule, the values for the EC50 in experiment [2] (setting [3]) and in experiment [2] (setting [5]) were 18.5 nM and 19 nM, respectively.

On to `CC1(C)CCC(CN2CCN(c3ccc(C(=O)NS(=O)(=O)c4ccc(N[C@H]5CC[C@H](N6CCOCC6)CC5)c([N+](=O)[O-])c4)c(Oc4cnc5[nH]ccc5c4)c3)CC2)=C(c2ccc(Cl)cc2)C1` [Example 9, Trans-4-(4-{[2-(4-chlorophenyl)-4,4-dimethylcyclohex-1-en-1-yl]methyl}piperazin-1-yl)-N-({4-[(4-morpholin-4-ylcyclohexyl)amino]-3-nitrophenyl}sulfonyl)-2-(1H-pyrrolo[2,3-b]pyridin-5-yloxy)benzamide], for which the Ki in experiment [1] (setting [4]) was below 0.01 nM. The EC50 turned out to be 14.8 nM in experiment [2] (setting [3]) and 15 nM in experiment [2] (setting [5]).

On to `CC1(C)CCC(CN2CCN(c3ccc(C(=O)NS(=O)(=O)c4ccc(OC[C@H]5CC[C@H](O)CC5)c([N+](=O)[O-])c4)c(Oc4cnc5[nH]ccc5c4)c3)CC2)=C(c2ccc(Cl)cc2)C1` [Example 196, Trans-4-(4-{[2-(4-chlorophenyl)-4,4-dimethylcyclohex-1-en-1-yl]methyl}piperazin-1-yl)-N-({4-[(4-hydroxycyclohexyl)methoxy]-3-nitrophenyl}sulfonyl)-2-(1H-pyrrolo[2,3-b]pyridin-5-yloxy)benzamide], for which the Ki in experiment [1] (GST-Bcl-2 1 nM, F-Bak peptide probe 100 nM, Tb-anti-GST 1 nM, < means below limit of detection, read-out: TR-FRET Bcl-2 Binding Ki) was below 0.01 nM. Take `O=C(NS(=O)(=O)c1ccc(NCC2CCOCC2)c([N+](=O)[O-])c1)c1ccc(N2CCN(CC3=C(c4ccc(Cl)cc4)CCC(CF)(CF)C3)CC2)cc1Oc1cnc2[nH]ccc2c1` [Example 353, 4-(4-{[2-(4-chlorophenyl)-5,5-bis(fluoromethyl)cyclohex-1-en-1-yl]methyl}piperazin-1-yl)-N-({3-nitro-4-[(tetrahydro-2H-pyran-4-ylmethyl)amino]phenyl}sulfonyl)-2-(1H-pyrrolo[2,3-b]pyridin-5-yloxy)benzamide]: the EC50 in experiment [2] (setting [3]) was found to be 5.05 nM. As for `CC1(C)CCC(CN2CCN(c3ccc(C(=O)NS(=O)(=O)c4ccc(OCC5CN(C6CC6)CCO5)c([N+](=O)[O-])c4)c(Oc4cnc5[nH]ccc5c4)c3)CC2)=C(c2ccc(Cl)cc2)C1` (stereo not shown) [Example 354, 4-(4-{[2-(4-chlorophenyl)-4,4-dimethylcyclohex-1-en-1-yl]methyl}piperazin-1-yl)-N-({4-[(4-cyclopropylmorpholin-2-yl)methoxy]-3-nitrophenyl}sulfonyl)-2-(1H-pyrrolo[2,3-b]pyridin-5-yloxy)benzamide], the EC50 in experiment [2] (setting [3]) amounted to 53.2 nM. In the case of `CC1(C)CCC(CN2CCN(c3ccc(C(=O)NS(=O)(=O)c4cnc(OC[C@]5(F)CC[C@@](C)(O)CC5)c(Cl)c4)c(Oc4cnc5[nH]ccc5c4)c3)CC2)=C(c2ccc(Cl)cc2)C1` [Example 355, N-({5-chloro-6-[(trans-1-fluoro-4-hydroxy-4-methylcyclohexyl)methoxy]pyridin-3-yl}sulfonyl)-4-(4-{[2-(4-chlorophenyl)-4,4-dimethylcyclohex-1-en-1-yl]methyl}piperazin-1-yl)-2-(1H-pyrrolo[2,3-b]pyridin-5-yloxy)benzamide], the EC50 in experiment [2] (50,000 cells per well, 10% human serum, 48 hours, 11 EC50 Values) was determined as 18.8 nM. `CC1(C)CCC(CN2CCN(c3ccc(C(=O)NS(=O)(=O)c4ccc(OCC5(F)CCN(C6COC6)CC5)c(C#N)c4)c(Oc4cnc5[nH]ccc5c4)c3)CC2)=C(c2ccc(Cl)cc2)C1` [Example 357, 4-(4-{[2-(4-chlorophenyl)-4,4-dimethylcyclohex-1-en-1-yl]methyl}piperazin-1-yl)-N-[(3-cyano-4-{[4-fluoro-1-(oxetan-3-yl)piperidin-4-yl]methoxy}phenyl)sulfonyl]-2-(1H-pyrrolo[2,3-b]pyridin-5-yloxy)benzamide]: the EC50 in experiment [2] (setting [3]) came out at 13.2 nM. On to `COCC1(C)CCC(c2ccc(Cl)cc2)=C(CN2CCN(c3ccc(C(=O)NS(=O)(=O)c4ccc(NCC5CCOCC5)c([N+](=O)[O-])c4)c(Oc4cnc5[nH]ccc5c4)c3)CC2)C1` (stereo not shown) [Example 360, 4-(4-{[2-(4-chlorophenyl)-5-(methoxymethyl)-5-methylcyclohex-1-en-1-yl]methyl}piperazin-1-yl)-N-({3-nitro-4-[(tetrahydro-2H-pyran-4-ylmethyl)amino]phenyl}sulfonyl)-2-(1H-pyrrolo[2,3-b]pyridin-5-yloxy)benzamide], for which the EC50 in experiment [2] (setting [3]) was determined as 9.9 nM. Turning to `CC1(C)CCC(CN2CCN(c3ccc(C(=O)NS(=O)(=O)c4ccc(NC[C@H]5CN(C6COC6)CCO5)c([N+](=O)[O-])c4)c(Oc4cnc5[nH]ccc5c4)c3)CC2)=C(c2ccc(Cl)cc2)C1` [Example 361, 4-(4-{[2-(4-chlorophenyl)-4,4-dimethylcyclohex-1-en-1-yl]methyl}piperazin-1-yl)-N-{[3-nitro-4-({[(2S)-4-(oxetan-3-yl)morpholin-2-yl]methyl}amino)phenyl]sulfonyl}-2-(1H-pyrrolo[2,3-b]pyridin-5-yloxy)benzamide], the EC50 in experiment [2] (setting [3]) was found to be 0.538 nM. Consider `CC1(C)CCC(CN2CCN(c3ccc(C(=O)NS(=O)(=O)c4ccc(OCC5(F)CCC(N(CCC#N)C6CC6)CC5)c([N+](=O)[O-])c4)c(Oc4cnc5[nH]ccc5c4)c3)CC2)=C(c2ccc(Cl)cc2)C1` (stereo not shown) [Example 363, 4-(4-{[2-(4-chlorophenyl)-4,4-dimethylcyclohex-1-en-1-yl]methyl}piperazin-1-yl)-N-{[4-({4-[(2-cyanoethyl)(cyclopropyl)amino]-1-fluorocyclohexyl}methoxy)-3-nitrophenyl]sulfonyl}-2-(1H-pyrrolo[2,3-b]pyridin-5-yloxy)benzamide], for which the EC50 in experiment [2] (setting [3]) turned out to be 26.4 nM. As for `CC1(C)CCC(CN2CCN(c3ccc(C(=O)NS(=O)(=O)c4cnc(NCC5CCOCC5)c([N+](=O)[O-])c4)c(Oc4cnc5[nH]ccc5c4)c3)CC2)=C(c2ccc(Cl)cc2)C1` [Example 364, 4-(4-{[2-(4-chlorophenyl)-4,4-dimethylcyclohex-1-en-1-yl]methyl}piperazin-1-yl)-N-({5-nitro-6-[(tetrahydro-2H-pyran-4-ylmethyl)amino]pyridin-3-yl}sulfonyl)-2-(1H-pyrrolo[2,3-b]pyridin-5-yloxy)benzamide], the EC50 in experiment [2] (setting [3]) came out at 11.2 nM. Take `CC1(C)CCC(CN2CCN(c3ccc(C(=O)NS(=O)(=O)c4ccc(NCC5CCC6(CC5)COC6)c([N+](=O)[O-])c4)c(Oc4cnc5[nH]ccc5c4)c3)CC2)=C(c2ccc(Cl)cc2)C1` [Example 365, 4-(4-{[2-(4-chlorophenyl)-4,4-dimethylcyclohex-1-en-1-yl]methyl}piperazin-1-yl)-N-({3-nitro-4-[(2-oxaspiro[3.5]non-7-ylmethyl)amino]phenyl}sulfonyl)-2-(1H-pyrrolo[2,3-b]pyridin-5-yloxy)benzamide]: in experiment [2] (setting [3]), the EC50 came to 3.02 nM. Same read-out and setting: under `CC1(C)CCC(CN2CCN(c3ccc(C(=O)NS(=O)(=O)c4ccc(NCC5CCC(C)(C#N)CC5)c([N+](=O)[O-])c4)c(Oc4cnc5[nH]ccc5c4)c3)CC2)=C(c2ccc(Cl)cc2)C1` (stereo not shown) [Example 366, 4-(4-{[2-(4-chlorophenyl)-4,4-dimethylcyclohex-1-en-1-yl]methyl}piperazin-1-yl)-N-[(4-{[(4-cyano-4-methylcyclohexyl)methyl]amino}-3-nitrophenyl)sulfonyl]-2-(1H-pyrrolo[2,3-b]pyridin-5-yloxy)benzamide] stands 16.5 nM; under `COCC1CCC(CNc2ccc(S(=O)(=O)NC(=O)c3ccc(N4CCN(CC5=C(c6ccc(Cl)cc6)CC(C)(C)CC5)CC4)cc3Oc3cnc4[nH]ccc4c3)cc2[N+](=O)[O-])CC1` (stereo not shown) [Example 374, 4-(4-{[2-(4-chlorophenyl)-4,4-dimethylcyclohex-1-en-1-yl]methyl}piperazin-1-yl)-N-{[4-({[4-(methoxymethyl)cyclohexyl]methyl}amino)-3-nitrophenyl]sulfonyl}-2-(1H-pyrrolo[2,3-b]pyridin-5-yloxy)benzamide], 15.5 nM. In the case of `CC1(C)CCC(CN2CCN(c3ccc(C(=O)NS(=O)(=O)c4cnc(OCC5CCN(c6nccs6)CC5)c(Cl)c4)c(Oc4cnc5[nH]ccc5c4)c3)CC2)=C(c2ccc(Cl)cc2)C1` [Example 375, 4-(4-{[2-(4-chlorophenyl)-4,4-dimethylcyclohex-1-en-1-yl]methyl}piperazin-1-yl)-N-[(5-chloro-6-{[1-(1,3-thiazol-2-yl)piperidin-4-yl]methoxy}pyridin-3-yl)sulfonyl]-2-(1H-pyrrolo[2,3-b]pyridin-5-yloxy)benzamide], the EC50 in experiment [2] (setting [3]) stood at 560 nM.

`COC1(C)CCC(c2ccc(Cl)cc2)=C(CN2CCN(c3ccc(C(=O)NS(=O)(=O)c4ccc(NCC5CCOCC5)c([N+](=O)[O-])c4)c(Oc4cnc5[nH]ccc5c4)c3)CC2)C1` (stereo not shown) [Example 378, 4-(4-{[2-(4-chlorophenyl)-5-methoxy-5-methylcyclohex-1-en-1-yl]methyl}piperazin-1-yl)-N-({3-nitro-4-[(tetrahydro-2H-pyran-4-ylmethyl)amino]phenyl}sulfonyl)-2-(1H-pyrrolo[2,3-b]pyridin-5-yloxy)benzamide]: in experiment [2] (setting [3]), the EC50 came out at 6.76 nM.
